Data as given in ChEMBL document CHEMBL2069199, “Development of isoform selective PI3-kinase inhibitors as pharmacological tools for elucidating the PI3K pathway” (Bioorg Med Chem Lett, 2012).
pIC50, pKi: −log10 of the molar value.

Experiments:
[1] = target: T1, Phosphatidylinositol 4,5-bisphosphate 3-kinase catalytic subunit alpha isoform (Homo sapiens, UniProt P42336); experiment: Inhibition of recombinant GST-tagged PI3K p110alpha using [32P]ATP after 60 mins by scintillation proximity assay
[2] = target: T2, Phosphatidylinositol 4,5-bisphosphate 3-kinase catalytic subunit delta isoform (Homo sapiens, UniProt O00329); experiment: Inhibition of recombinant GST-tagged PI3K p110delta using [32P]ATP after 60 mins by scintillation proximity assay
T2 sequence (O00329 whole entry): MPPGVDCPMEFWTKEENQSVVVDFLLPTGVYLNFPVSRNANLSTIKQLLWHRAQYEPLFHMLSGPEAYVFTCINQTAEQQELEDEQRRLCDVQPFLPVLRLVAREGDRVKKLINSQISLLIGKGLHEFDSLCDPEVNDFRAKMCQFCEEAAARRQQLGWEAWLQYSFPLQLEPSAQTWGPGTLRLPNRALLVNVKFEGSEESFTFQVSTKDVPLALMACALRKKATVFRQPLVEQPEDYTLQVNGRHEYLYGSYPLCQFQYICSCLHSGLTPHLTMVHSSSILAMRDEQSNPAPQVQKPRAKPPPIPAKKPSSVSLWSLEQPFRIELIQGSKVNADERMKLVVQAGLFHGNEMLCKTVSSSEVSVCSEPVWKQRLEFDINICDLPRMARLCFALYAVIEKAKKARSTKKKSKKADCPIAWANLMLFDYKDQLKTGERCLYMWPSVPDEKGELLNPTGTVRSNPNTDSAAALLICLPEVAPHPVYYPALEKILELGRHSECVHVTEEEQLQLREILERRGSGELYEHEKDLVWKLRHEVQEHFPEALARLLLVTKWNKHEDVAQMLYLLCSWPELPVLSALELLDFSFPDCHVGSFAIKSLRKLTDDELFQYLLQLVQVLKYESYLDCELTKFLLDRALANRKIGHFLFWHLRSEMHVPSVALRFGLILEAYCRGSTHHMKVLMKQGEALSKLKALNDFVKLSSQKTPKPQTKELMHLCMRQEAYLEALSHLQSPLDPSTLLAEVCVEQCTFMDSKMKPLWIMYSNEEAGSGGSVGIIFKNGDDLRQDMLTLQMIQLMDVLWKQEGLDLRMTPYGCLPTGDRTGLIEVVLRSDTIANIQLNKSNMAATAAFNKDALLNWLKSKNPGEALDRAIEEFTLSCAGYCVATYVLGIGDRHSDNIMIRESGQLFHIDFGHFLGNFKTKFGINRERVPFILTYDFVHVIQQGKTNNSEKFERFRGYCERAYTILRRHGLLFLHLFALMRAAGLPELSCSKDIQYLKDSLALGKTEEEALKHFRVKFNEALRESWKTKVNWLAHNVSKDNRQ

[3] = target: T3, Phosphatidylinositol 4,5-bisphosphate 3-kinase catalytic subunit beta isoform (Homo sapiens, UniProt P42338); experiment: Inhibition of recombinant GST-tagged PI3K p110beta using [32P]ATP after 60 mins by scintillation proximity assay
[4] = Antiinflammatory activity in human neutrophils assessed as inhibition of fMLP-induced oxidative burst; format: functional, cell-based; conditions: neutrophil
[5] = Antiinflammatory activity in mouse B cells assessed as inhibition of mitogen-induced proliferation; format: functional, cell-based
[6] = Antiinflammatory activity in human B cells assessed as inhibition of mitogen-induced proliferation; format: functional, cell-based; conditions: B-cell
[7] = target: Serine/threonine-protein kinase mTOR (Homo sapiens, UniProt P42345); experiment: Inhibition of mTOR
[8] = target: DNA-dependent protein kinase catalytic subunit (Homo sapiens, UniProt P78527); experiment: Inhibition of DNA-PK
Sequence of DNA-dependent protein kinase catalytic subunit (P78527 whole entry): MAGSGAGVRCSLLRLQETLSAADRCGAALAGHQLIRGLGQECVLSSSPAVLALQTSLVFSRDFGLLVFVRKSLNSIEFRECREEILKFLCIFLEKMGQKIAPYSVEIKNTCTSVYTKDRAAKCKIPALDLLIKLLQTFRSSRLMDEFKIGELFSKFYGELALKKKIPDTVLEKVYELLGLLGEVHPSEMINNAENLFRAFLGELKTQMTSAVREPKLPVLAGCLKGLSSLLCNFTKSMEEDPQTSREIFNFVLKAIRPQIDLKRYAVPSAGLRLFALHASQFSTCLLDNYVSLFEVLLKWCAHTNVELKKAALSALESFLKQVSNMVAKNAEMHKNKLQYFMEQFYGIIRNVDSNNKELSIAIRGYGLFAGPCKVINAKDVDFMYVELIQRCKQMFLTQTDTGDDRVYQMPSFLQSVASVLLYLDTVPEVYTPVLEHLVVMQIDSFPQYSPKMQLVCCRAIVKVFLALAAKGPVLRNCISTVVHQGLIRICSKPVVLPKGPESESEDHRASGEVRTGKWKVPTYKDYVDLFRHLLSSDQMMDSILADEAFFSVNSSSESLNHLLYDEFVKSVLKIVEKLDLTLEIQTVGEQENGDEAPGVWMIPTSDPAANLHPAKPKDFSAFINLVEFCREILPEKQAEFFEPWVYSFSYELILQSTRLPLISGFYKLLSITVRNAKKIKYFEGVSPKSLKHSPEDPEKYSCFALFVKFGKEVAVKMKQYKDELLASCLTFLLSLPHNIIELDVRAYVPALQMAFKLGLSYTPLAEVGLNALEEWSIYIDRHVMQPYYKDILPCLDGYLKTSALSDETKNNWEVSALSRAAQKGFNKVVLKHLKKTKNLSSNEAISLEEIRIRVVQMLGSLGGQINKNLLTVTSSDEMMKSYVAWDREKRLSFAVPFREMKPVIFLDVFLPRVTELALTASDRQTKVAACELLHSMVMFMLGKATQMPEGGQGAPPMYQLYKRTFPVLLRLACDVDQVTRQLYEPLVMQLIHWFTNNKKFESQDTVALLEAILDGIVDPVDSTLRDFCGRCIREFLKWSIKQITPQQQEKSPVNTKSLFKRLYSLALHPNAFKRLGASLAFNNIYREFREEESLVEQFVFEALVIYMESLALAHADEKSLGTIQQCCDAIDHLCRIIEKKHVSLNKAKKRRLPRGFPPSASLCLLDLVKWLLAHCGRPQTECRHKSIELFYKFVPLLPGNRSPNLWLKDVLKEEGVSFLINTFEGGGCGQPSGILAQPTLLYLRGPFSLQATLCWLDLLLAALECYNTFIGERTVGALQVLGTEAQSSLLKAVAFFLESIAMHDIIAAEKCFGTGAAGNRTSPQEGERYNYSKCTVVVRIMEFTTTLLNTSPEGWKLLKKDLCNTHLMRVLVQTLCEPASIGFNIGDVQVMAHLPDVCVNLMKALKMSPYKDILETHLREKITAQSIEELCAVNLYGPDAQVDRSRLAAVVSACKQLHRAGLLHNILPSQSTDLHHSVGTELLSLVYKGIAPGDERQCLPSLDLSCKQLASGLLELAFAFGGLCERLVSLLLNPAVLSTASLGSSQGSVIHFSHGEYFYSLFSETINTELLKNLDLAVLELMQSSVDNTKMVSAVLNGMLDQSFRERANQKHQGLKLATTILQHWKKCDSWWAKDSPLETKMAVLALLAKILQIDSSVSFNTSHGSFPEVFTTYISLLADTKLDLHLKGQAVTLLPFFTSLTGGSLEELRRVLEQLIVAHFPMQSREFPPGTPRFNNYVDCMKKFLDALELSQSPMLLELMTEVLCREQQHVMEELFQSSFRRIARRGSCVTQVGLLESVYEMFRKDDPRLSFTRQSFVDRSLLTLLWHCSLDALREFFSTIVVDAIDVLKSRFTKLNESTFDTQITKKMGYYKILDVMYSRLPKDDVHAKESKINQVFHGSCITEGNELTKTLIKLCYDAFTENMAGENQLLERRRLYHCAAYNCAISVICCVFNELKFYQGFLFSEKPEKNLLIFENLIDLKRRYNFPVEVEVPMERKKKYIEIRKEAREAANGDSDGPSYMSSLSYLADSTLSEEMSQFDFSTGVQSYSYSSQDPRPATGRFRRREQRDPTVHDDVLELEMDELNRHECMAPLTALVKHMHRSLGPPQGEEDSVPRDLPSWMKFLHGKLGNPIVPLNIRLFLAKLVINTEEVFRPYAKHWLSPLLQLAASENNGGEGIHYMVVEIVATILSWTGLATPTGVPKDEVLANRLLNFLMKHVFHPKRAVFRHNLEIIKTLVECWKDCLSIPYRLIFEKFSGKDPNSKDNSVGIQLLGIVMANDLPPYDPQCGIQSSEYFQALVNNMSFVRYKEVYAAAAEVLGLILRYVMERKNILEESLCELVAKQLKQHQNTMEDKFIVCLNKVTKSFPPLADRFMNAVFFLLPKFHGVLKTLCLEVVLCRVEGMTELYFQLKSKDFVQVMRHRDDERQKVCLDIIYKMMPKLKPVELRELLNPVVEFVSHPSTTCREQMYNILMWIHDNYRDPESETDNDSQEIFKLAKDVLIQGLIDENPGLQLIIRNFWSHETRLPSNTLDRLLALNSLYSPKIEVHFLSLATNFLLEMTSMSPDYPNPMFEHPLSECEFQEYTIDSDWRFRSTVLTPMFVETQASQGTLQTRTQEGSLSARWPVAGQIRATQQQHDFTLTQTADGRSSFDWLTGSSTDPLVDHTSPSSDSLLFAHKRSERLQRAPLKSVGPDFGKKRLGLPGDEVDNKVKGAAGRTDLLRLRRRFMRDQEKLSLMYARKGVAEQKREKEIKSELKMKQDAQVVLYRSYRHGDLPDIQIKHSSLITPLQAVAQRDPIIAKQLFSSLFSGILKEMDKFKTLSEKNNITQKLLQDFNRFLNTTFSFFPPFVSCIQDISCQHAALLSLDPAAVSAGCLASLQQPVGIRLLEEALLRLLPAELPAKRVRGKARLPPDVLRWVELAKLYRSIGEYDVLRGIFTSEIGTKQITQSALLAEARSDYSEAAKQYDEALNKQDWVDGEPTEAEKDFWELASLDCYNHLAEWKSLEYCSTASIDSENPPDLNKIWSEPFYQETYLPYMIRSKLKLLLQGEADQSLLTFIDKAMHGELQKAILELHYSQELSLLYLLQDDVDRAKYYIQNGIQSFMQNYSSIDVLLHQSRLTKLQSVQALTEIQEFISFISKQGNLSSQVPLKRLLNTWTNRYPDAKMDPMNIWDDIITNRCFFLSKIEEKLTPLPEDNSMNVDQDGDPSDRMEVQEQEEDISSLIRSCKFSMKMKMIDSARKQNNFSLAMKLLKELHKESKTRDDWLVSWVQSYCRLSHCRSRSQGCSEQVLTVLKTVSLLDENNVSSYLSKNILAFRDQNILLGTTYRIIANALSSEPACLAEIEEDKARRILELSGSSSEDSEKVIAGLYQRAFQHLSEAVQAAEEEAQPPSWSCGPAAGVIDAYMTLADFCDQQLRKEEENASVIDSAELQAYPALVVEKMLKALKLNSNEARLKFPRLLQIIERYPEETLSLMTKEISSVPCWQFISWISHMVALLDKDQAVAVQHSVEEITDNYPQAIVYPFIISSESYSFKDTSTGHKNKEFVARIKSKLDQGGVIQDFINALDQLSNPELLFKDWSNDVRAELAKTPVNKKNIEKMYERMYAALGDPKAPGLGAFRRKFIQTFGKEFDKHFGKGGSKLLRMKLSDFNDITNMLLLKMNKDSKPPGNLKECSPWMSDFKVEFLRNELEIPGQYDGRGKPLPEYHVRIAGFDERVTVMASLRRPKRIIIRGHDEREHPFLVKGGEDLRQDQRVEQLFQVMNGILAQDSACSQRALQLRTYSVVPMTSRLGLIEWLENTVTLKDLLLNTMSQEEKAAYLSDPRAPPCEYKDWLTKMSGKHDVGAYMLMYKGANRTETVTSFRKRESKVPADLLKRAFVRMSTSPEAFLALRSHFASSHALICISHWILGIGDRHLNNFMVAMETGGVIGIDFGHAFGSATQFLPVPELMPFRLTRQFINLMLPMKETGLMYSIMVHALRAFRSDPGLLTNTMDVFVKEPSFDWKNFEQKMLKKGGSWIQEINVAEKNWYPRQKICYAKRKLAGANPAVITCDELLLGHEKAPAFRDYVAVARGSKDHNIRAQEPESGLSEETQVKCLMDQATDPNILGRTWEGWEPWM

[9] = target: Phosphatidylinositol 3-kinase catalytic subunit type 3 (Homo sapiens, UniProt Q8NEB9); experiment: Inhibition of Vps34
Sequence of Phosphatidylinositol 3-kinase catalytic subunit type 3 (Q8NEB9 whole entry): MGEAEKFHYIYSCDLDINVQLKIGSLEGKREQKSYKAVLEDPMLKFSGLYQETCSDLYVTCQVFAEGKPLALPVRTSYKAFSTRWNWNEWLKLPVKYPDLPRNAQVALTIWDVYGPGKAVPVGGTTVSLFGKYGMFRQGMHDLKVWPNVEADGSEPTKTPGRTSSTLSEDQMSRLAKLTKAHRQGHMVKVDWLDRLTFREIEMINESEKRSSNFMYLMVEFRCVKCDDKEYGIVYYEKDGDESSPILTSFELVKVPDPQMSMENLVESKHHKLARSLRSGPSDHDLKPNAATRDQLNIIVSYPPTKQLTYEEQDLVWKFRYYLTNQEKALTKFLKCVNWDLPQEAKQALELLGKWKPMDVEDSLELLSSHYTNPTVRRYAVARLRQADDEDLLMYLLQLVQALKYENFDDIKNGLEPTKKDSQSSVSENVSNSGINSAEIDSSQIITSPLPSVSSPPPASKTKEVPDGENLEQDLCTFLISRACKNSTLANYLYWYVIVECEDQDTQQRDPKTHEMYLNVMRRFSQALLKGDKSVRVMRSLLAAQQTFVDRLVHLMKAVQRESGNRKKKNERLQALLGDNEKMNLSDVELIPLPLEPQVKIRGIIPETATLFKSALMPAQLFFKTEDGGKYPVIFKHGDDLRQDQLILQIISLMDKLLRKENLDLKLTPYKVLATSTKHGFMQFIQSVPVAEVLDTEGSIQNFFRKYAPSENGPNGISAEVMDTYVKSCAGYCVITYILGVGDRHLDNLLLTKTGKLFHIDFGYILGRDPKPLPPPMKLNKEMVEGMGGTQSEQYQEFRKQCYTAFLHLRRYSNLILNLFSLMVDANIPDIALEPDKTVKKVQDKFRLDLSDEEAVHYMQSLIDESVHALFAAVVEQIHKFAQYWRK

[10] = target: Phosphatidylinositol 4-kinase beta (Homo sapiens, UniProt Q9UBF8); experiment: Inhibition of PI4Kbeta
[11] = Tmax in Wistar rat at 10 mg/kg, po; format: ADME, organism-based; design: dose 10 mg/kg, route oral; conditions: in vivo
[12] = Cmax in Wistar rat at 10 mg/kg, po; format: ADME, organism-based; design: dose 10 mg/kg, route oral; conditions: in vivo
Rattus norvegicus [13] = experiment: (§1) AUC in Wistar rat at 10 mg/kg, po; format: ADME, organism-based, Plasma; design: dose 10 mg/kg, route oral; conditions: in vivo
[14] = Oral bioavailability in Wistar rat at 10 mg/kg; format: ADME, organism-based; conditions: in vivo
[15] = Half life in Wistar rat at 10 mg/kg, po; format: ADME, organism-based; design: dose 10 mg/kg, route oral; conditions: in vivo
Rattus norvegicus [16] = experiment: Volume of distribution at steady state in Wistar rat at 10 mg/kg, po; format: ADME, organism-based; design: dose 10 mg/kg, route oral; conditions: in vivo
[17] = Aqueous solubility of the compound at pH 6.8; format: physicochemical
[18] = target: T4, Phosphatidylinositol 4,5-bisphosphate 3-kinase catalytic subunit gamma isoform (Homo sapiens, UniProt P48736)
Description: Inhibition of recombinant GST-tagged PI3K p110gamma using [32P]ATP after 60 mins by scintillation proximity assay

[19] = as §1; format: ADME, organism-based, Plasma; design: dose 10 mg/kg, route oral; conditions: Wistar, plasma
[20] = Clearance in Wistar rat at 10 mg/kg, po; format: ADME, organism-based; design: dose 10 mg/kg, route oral; conditions: in vivo
[21] = target: T4, Phosphatidylinositol 4,5-bisphosphate 3-kinase catalytic subunit gamma isoform; experiment: Inhibition of recombinant GST-tagged PI3K p110gamma by KinaseGlo assay
[22] = target: T1, Phosphatidylinositol 4,5-bisphosphate 3-kinase catalytic subunit alpha isoform; experiment: Inhibition of recombinant GST-tagged PI3K p110alpha by KinaseGlo assay
[23] = target: T2, Phosphatidylinositol 4,5-bisphosphate 3-kinase catalytic subunit delta isoform; experiment: Inhibition of recombinant GST-tagged PI3K p110delta by KinaseGlo assay
[24] = target: T3, Phosphatidylinositol 4,5-bisphosphate 3-kinase catalytic subunit beta isoform; experiment: Inhibition of recombinant GST-tagged PI3K p110beta by KinaseGlo assay
[25] = target: Dual specificity protein kinase CLK1 (Homo sapiens, UniProt P49759); experiment: Inhibition of CLK1
[26] = target: Dual specificity protein kinase CLK2 (Homo sapiens, UniProt P49760); experiment: Inhibition of CLK2
[27] = Tmax in Wistar rat at 5 mg/kg, po; format: ADME, organism-based; design: dose 5 mg/kg, route oral; conditions: in vivo
[28] = Cmax in Wistar rat at 5 mg/kg, po; format: ADME, organism-based; design: dose 5 mg/kg, route oral; conditions: in vivo
[29] = AUC in Wistar rat at 5 mg/kg, po; format: ADME, organism-based; design: dose 5 mg/kg, route oral; conditions: plasma
[30] = Oral bioavailability in Wistar rat at 5 mg/kg; format: ADME, organism-based; conditions: in vivo
[31] = Clearance in Wistar rat at 5 mg/kg, po; format: ADME, organism-based; design: dose 5 mg/kg, route oral; conditions: in vivo
[32] = Half life in Wistar rat at 5 mg/kg, po; format: ADME, organism-based; design: dose 5 mg/kg, route oral; conditions: in vivo
Rattus norvegicus [33] = experiment: Volume of distribution at steady state in Wistar rat at 5 mg/kg, po; format: ADME, organism-based; design: dose 5 mg/kg, route oral; conditions: in vivo

| Structure (SMILES) | pKi [1] | pKi [2] | pKi [3] | pIC50 [4] | pKi [18] | also measured |
| --- | --- | --- | --- | --- | --- | --- |
| Cc1cc(NC(=O)CCNC(=O)Nc2nc(C)c(-c3ccc(-n4cccn4)cc3)s2)no1 | 6.82 | 8.40 | 6.47 | 6.14 | 5.99 | pIC50 [5]: 7.85; pIC50 [6]: 8.30; pIC50 [7]: < 5.04; pIC50 [8]: < 5.00; pIC50 [9]: < 5.04; pIC50 [10]: 7.40; Tmax [11]: 8 h; Cmax [12]: 50 nM; AUC (Rattus norvegicus [13]): 0.69 µM·h; bioavailability [14]: 3%; half-life [15]: 36 min; Vdss (Rattus norvegicus [16]): 0.4 L/kg; solubility [17]: < 2 µg/mL |
| CC(=O)c1ccc(-c2sc(NC(=O)NCCC(=O)NC(C)(C)C)nc2C)cc1 | 5.72 | 6.13 | 6.60 | 6.66 | – | pIC50 [5]: 6.12; pIC50 [6]: 5.94; pIC50 [7]: < 5.04; pIC50 [8]: < 5.00; pIC50 [9]: < 5.04; pIC50 [10]: 6.62; Tmax [11]: 0.5 h; Cmax [12]: 1720 nM; AUC [19]: 10.8 µM·h; bioavailability [14]: 57%; CL/F [20]: 23 mL/min/kg; half-life [15]: 48 min; Vdss (Rattus norvegicus [16]): 1.4 L/kg |
| CC(=O)Nc1nc(C)c(-c2ccc(S(N)(=O)=O)cc2)s1 | 6.96 | 6.68 | 5.84 | 5.59 | 6.96 | – |
| CC(=O)Nc1nc(C)c(-c2ccc(S(C)(=O)=O)cc2)s1 | 6.70 | 6.72 | 5.87 | 5.71 | 6.64 | – |
| CC(=O)Nc1nc(C)c(-c2ccc(S(C)(=O)=O)c(Cl)c2)s1 | 7.46 | 7.10 | 5.89 | 5.71 | 7.24 | – |
| CC(=O)Nc1nc(C)c(-c2ccc(S(C)(=O)=O)c(Br)c2)s1 | 7.96 | 7.21 | 6.26 | 6.47 | 7.49 | – |
| CC(=O)Nc1nc(C)c(-c2ccc(S(C)(=O)=O)c(F)c2)s1 | – | – | – | 6.66 | – | – |
| CC(=O)Nc1nc(C)c(-c2ccc(S(C)(=O)=O)c(C#N)c2)s1 | 7.35 | 7.10 | 6.12 | 6.52 | 7.21 | – |
| CC(=O)Nc1nc(C)c(-c2ccc(S(C)(=O)=O)c(C(F)(F)F)c2)s1 | 7.55 | 7.13 | 6.06 | 6.54 | 7.21 | – |
| CC(=O)Nc1nc(C)c(-c2ccc(-n3cccn3)cc2)s1 | 7.52 | 7.72 | 6.39 | 6.49 | 6.96 | – |
| CC(=O)Nc1nc(C)c(-c2ccc(C(C)=O)cc2)s1 | 6.72 | 6.59 | 5.71 | 5.75 | 6.59 | – |
| Cc1nc(NC(=O)N2CCC[C@H]2C(N)=O)sc1-c1ccc(S(C)(=O)=O)cc1 | 6.73 | 5.44 | < 5.00 | – | 5.24 | – |
| Cc1nc(NC(=O)N2CCC[C@H]2C(N)=O)sc1-c1ccc(S(C)(=O)=O)c(C(F)(F)F)c1 | 7.70 | 5.78 | < 5.00 | – | 5.94 | – |
| Cc1nc(NC(=O)N2CCC[C@H]2C(N)=O)sc1-c1ccc(-n2cccn2)cc1 | 8.30 | 6.66 | 5.70 | 6.03 | 6.28 | pIC50 [5]: 6.43; pIC50 [6]: 6.49; pIC50 [7]: < 5.04; pIC50 [8]: < 5.00; pIC50 [9]: < 5.04; pIC50 [10]: 6.04; Tmax [11]: 4 h; Cmax [12]: 280 nM; AUC [19]: 4.1 µM·h; bioavailability [14]: 21%; CL/F [20]: 21 mL/min/kg; half-life [15]: 42 min; Vdss (Rattus norvegicus [16]): 1.29 L/kg |
| NC(=O)[C@@H]1CCCN1C(=O)Nc1nc2ccc(-c3cnc(N)c(C(F)(F)F)c3)cc2s1 | – | – | – | – | – | pIC50 [21]: 5.92; pIC50 [22]: 7.40; pIC50 [23]: 6.27; pIC50 [24]: 5.53 |
| Cc1cc(NC(=O)CCNC(=O)Nc2nc(C)c(-c3ccc(S(C)(=O)=O)c(F)c3)s2)no1 | 6.96 | 8.52 | 6.07 | – | 6.92 | – |
| Cc1nc(NC(=O)NCCC(=O)OC(C)(C)C)sc1-c1ccc(S(C)(=O)=O)c(F)c1 | 5.67 | 6.42 | 7.05 | – | 7.70 | – |
| CCn1nnc(CCNC(=O)Nc2nc(C)c(-c3ccc(S(C)(=O)=O)c(F)c3)s2)n1 | 5.85 | 6.33 | 6.49 | 6.57 | – | pIC50 [5]: 6.23; pIC50 [6]: 5.79; pIC50 [7]: < 5.04; pIC50 [8]: < 5.00; pIC50 [9]: < 5.04; pIC50 [10]: 5.88; pIC50 [25]: 6.93; pIC50 [26]: 6.93; Tmax [27]: 1 h; Cmax [28]: 490 nM; AUC [29]: 4.31 µM·h; bioavailability [30]: 24%; CL/F [31]: 4 mL/min/kg; half-life [32]: 108 min; Vdss (Rattus norvegicus [33]): 0.6 L/kg |
